Reference: patent publication US8076487B2, “Pyridone derivative and herbicide” (Kumiai Chemical Industry Co., Ltd., priority 2006, dated 2011)

Assays:
Type in all cases: in vivo
[1] = tested on: slender amaranth (Amaranthus viridis L.); assay: Test Example 3: herbicidal effect by application to upland field (foliage treatment); conditions: 14th day after application; for herbicidal effect, Slender Amaranth: foliage treatment, 1,000 g active ingredient per 1 hectare, greenhouse; for herbicidal effect (index), Slender Amaranth: foliage treatment, plants grown two weeks, 1,000 g active ingredient per hectare
Procedure, shortened: (§1)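 Effect scores come from a standard grading 14 days after plants, grown from seed for two weeks in field soil in a greenhouse, were sprayed over the top with wettable powder in water at 1,000 g active ingredient per hectare.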

[2] = tested on: green foxtail (Setaria viridis (L.) P. Beauv.); assay: as above; conditions: 14th day after application; for herbicidal effect, Green Foxtail: foliage treatment, 1,000 g active ingredient per 1 hectare, greenhouse; for herbicidal effect (index), Green Foxtail: foliage treatment, plants grown two weeks, 1,000 g active ingredient per hectare
Procedure, shortened: as §1

[3] = tested on: velvetleaf (Abutilon theophrasti medicus); assay: as above; conditions: 14th day after application; for herbicidal effect, Velvetleaf: foliage treatment, 1,000 g active ingredient per 1 hectare, greenhouse; for herbicidal effect (index), Velvetleaf: foliage treatment, plants grown two weeks, 1,000 g active ingredient per hectare
Procedure, shortened: as §1

[4] = tested on: barnyardgrass (Echinochloa crus-galli (L.) P. Beauv. var. crus-galli); assay: as above; conditions: 14th day after application; for herbicidal effect, Barnyardgrass: foliage treatment, 1,000 g active ingredient per 1 hectare, greenhouse; for herbicidal effect (index), Barnyardgrass: foliage treatment, plants grown two weeks, 1,000 g active ingredient per hectare
Procedure, shortened: as §1

[5] = tested on: early watergrass (Echinochloa oryzicola Vasing); assay: Test Example 1: herbicidal effect by soil application to paddy field; conditions: paddy field soil application; active ingredient 1,000 g per 1 hectare; wettable powder added dropwise to water surface the day after sowing; examined on the 21st day after application
Procedure, shortened: (§2)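 Under greenhouse conditions, seeds sown on puddled paddy soil in 100 cm2 pots under 3 cm of standing water received the test compound; injury was assessed with a standard scoring scheme three weeks (day 21) after treatment.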

[6] = tested on: Japanese bulrush (Scirpus juncoides Roxb.); assay: as above; conditions: paddy field soil application; active ingredient 1,000 g per 1 hectare; wettable powder added dropwise to water surface the day after sowing; examined on the 21st day after application
Procedure, shortened: as §2

[7] = tested on: heartshape false pickerelweed (Monochoria vaginalis (Burm.f.) C.Presl); assay: as above; conditions: paddy field soil application; active ingredient 1,000 g per 1 hectare; wettable powder added dropwise to water surface the day after sowing; examined on the 21st day after application
Procedure, shortened: as §2

Structure (SMILES) | herbicidal effect, Slender Amaranth [1] | herbicidal effect, Green Foxtail [2] | herbicidal effect, Velvetleaf [3] | herbicidal effect, Barnyardgrass [4] | herbicidal effect, Echinochloa oryzicola Vasing [5] | herbicidal effect, Scirpus juncoides Roxb. [6] | herbicidal effect, Monochoria vaginalis (Burm. f.) C. Presl [7] | herbicidal effect (index), Slender Amaranth [1] | herbicidal effect (index), Green Foxtail [2] | herbicidal effect (index), Velvetleaf [3] | herbicidal effect (index), Barnyardgrass [4]
CCn1c(C(F)(F)F)ccc(C(=O)C2=C(O)C3CCC(C3)C2=O)c1=O (centres unmarked) [III-2] | 5 (90% or more of herbicidal effect and crop phytotoxicity) | 5 (90% or more of herbicidal effect and crop phytotoxicity) | 5 (90% or more of herbicidal effect and crop phytotoxicity) | 5 (90% or more of herbicidal effect and crop phytotoxicity) | 5 (90% or more of herbicidal effect and crop phytotoxicity) | 5 (90% or more of herbicidal effect and crop phytotoxicity) | 5 (90% or more of herbicidal effect and crop phytotoxicity) | – | – | – | –
CCCN(CCC)n1c(C(F)(F)F)ccc(C(=O)C2=C(O)CCCC2=O)c1=O [I-173] | 4 (70 to less than 90% of herbicidal effect and crop phytotoxicity) | 5 (90% or more of herbicidal effect and crop phytotoxicity) | 5 (90% or more of herbicidal effect and crop phytotoxicity) | 4 (70 to less than 90% of herbicidal effect and crop phytotoxicity) | 5 (90% or more of herbicidal effect and crop phytotoxicity) | 5 (90% or more of herbicidal effect and crop phytotoxicity) | 5 (90% or more of herbicidal effect and crop phytotoxicity) | – | – | – | –
CCn1ncc(C(=O)c2ccc(C(F)(F)F)n(C)c2=O)c1OC(C)=O [IV-208] | 5 (90% or more of herbicidal effect and crop phytotoxicity) | 4 (70 to less than 90% of herbicidal effect and crop phytotoxicity) | 5 (90% or more of herbicidal effect and crop phytotoxicity) | 5 (90% or more of herbicidal effect and crop phytotoxicity) | 5 (90% or more of herbicidal effect and crop phytotoxicity) | 5 (90% or more of herbicidal effect and crop phytotoxicity) | 5 (90% or more of herbicidal effect and crop phytotoxicity) | – | – | – | –
COCCCn1c(C(F)(F)F)ccc(C(=O)C2=C(O)CCCC2=O)c1=O [I-42] | – | – | – | – | 5 (90% or more of herbicidal effect and crop phytotoxicity) | 5 (90% or more of herbicidal effect and crop phytotoxicity) | 5 (90% or more of herbicidal effect and crop phytotoxicity) | 5 (90% or more of herbicidal effect and crop phytotoxicity) | 5 (90% or more of herbicidal effect and crop phytotoxicity) | 5 (90% or more of herbicidal effect and crop phytotoxicity) | 5 (90% or more of herbicidal effect and crop phytotoxicity)
CC(C)=CCCn1c(C(F)(F)F)ccc(C(=O)C2=C(O)CCCC2=O)c1=O [I-13] | – | – | – | – | 5 (90% or more of herbicidal effect and crop phytotoxicity) | 5 (90% or more of herbicidal effect and crop phytotoxicity) | 5 (90% or more of herbicidal effect and crop phytotoxicity) | 5 (90% or more of herbicidal effect and crop phytotoxicity) | 5 (90% or more of herbicidal effect and crop phytotoxicity) | 5 (90% or more of herbicidal effect and crop phytotoxicity) | 5 (90% or more of herbicidal effect and crop phytotoxicity)
COc1ccc(-n2c(C(F)(F)F)ccc(C(=O)C3=C(O)CCCC3=O)c2=O)cc1 [I-78] | – | – | – | – | 5 (90% or more of herbicidal effect and crop phytotoxicity) | 5 (90% or more of herbicidal effect and crop phytotoxicity) | 5 (90% or more of herbicidal effect and crop phytotoxicity) | 5 (90% or more of herbicidal effect and crop phytotoxicity) | 5 (90% or more of herbicidal effect and crop phytotoxicity) | 5 (90% or more of herbicidal effect and crop phytotoxicity) | 5 (90% or more of herbicidal effect and crop phytotoxicity)
Cc1ccc(C(=O)C2=C(O)CCCC2=O)c(=O)n1-c1ccccc1 [I-229] | 5 (90% or more of herbicidal effect and crop phytotoxicity) | 4 (70 to less than 90% of herbicidal effect and crop phytotoxicity) | 5 (90% or more of herbicidal effect and crop phytotoxicity) | 4 (70 to less than 90% of herbicidal effect and crop phytotoxicity) | 4 (70 to less than 90% of herbicidal effect and crop phytotoxicity) | 4 (70 to less than 90% of herbicidal effect and crop phytotoxicity) | 5 (90% or more of herbicidal effect and crop phytotoxicity) | – | – | – | –
O=C1CCCC(O)=C1C(=O)c1ccc(C(F)(F)F)n(CC2OCCO2)c1=O [I-138] | 5 (90% or more of herbicidal effect and crop phytotoxicity) | 4 (70 to less than 90% of herbicidal effect and crop phytotoxicity) | 5 (90% or more of herbicidal effect and crop phytotoxicity) | 5 (90% or more of herbicidal effect and crop phytotoxicity) | 5 (90% or more of herbicidal effect and crop phytotoxicity) | 5 (90% or more of herbicidal effect and crop phytotoxicity) | 5 (90% or more of herbicidal effect and crop phytotoxicity) | – | – | – | –
CSCCCn1c(C(F)(F)F)ccc(C(=O)C2=C(O)CCCC2=O)c1=O [I-69] | – | – | – | – | 5 (90% or more of herbicidal effect and crop phytotoxicity) | 5 (90% or more of herbicidal effect and crop phytotoxicity) | 5 (90% or more of herbicidal effect and crop phytotoxicity) | 5 (90% or more of herbicidal effect and crop phytotoxicity) | 5 (90% or more of herbicidal effect and crop phytotoxicity) | 5 (90% or more of herbicidal effect and crop phytotoxicity) | 5 (90% or more of herbicidal effect and crop phytotoxicity)
CCn1c(C(F)(F)F)ccc(C(=O)C2=C(O)CCCC2=O)c1=O [I-2] | – | – | – | – | 5 (90% or more of herbicidal effect and crop phytotoxicity) | 5 (90% or more of herbicidal effect and crop phytotoxicity) | 5 (90% or more of herbicidal effect and crop phytotoxicity) | 5 (90% or more of herbicidal effect and crop phytotoxicity) | 5 (90% or more of herbicidal effect and crop phytotoxicity) | 5 (90% or more of herbicidal effect and crop phytotoxicity) | 5 (90% or more of herbicidal effect and crop phytotoxicity)
CS(=O)(=O)Cn1c(C(F)(F)F)ccc(C(=O)C2=C(O)CCCC2=O)c1=O [I-47] | – | – | – | – | 5 (90% or more of herbicidal effect and crop phytotoxicity) | 5 (90% or more of herbicidal effect and crop phytotoxicity) | 5 (90% or more of herbicidal effect and crop phytotoxicity) | 5 (90% or more of herbicidal effect and crop phytotoxicity) | 4 (70 to less than 90% of herbicidal effect and crop phytotoxicity) | 5 (90% or more of herbicidal effect and crop phytotoxicity) | 5 (90% or more of herbicidal effect and crop phytotoxicity)
